Reference: BindingDB's records for doi:10.1021/acs.jmedchem.7b01344 (Metabasis Therapeutics, 2017)

Key:
[1] = target: Prostaglandin D2 receptor 2 (CRTH2) (Homo sapiens) (UniProt Q9Y5Y4); assay: Binding affinity to DP2 receptor (unknown origin)
[2] = target: Prostaglandin D2 receptor 2 (CRTH2) (Homo sapiens) (UniProt Q9Y5Y4); assay: Binding affinity to DP2 receptor (unknown origin) in presence of 10% human serum

Chain of Prostaglandin D2 receptor 2 (CRTH2) (Homo sapiens) (Q9Y5Y4 whole entry, looked up): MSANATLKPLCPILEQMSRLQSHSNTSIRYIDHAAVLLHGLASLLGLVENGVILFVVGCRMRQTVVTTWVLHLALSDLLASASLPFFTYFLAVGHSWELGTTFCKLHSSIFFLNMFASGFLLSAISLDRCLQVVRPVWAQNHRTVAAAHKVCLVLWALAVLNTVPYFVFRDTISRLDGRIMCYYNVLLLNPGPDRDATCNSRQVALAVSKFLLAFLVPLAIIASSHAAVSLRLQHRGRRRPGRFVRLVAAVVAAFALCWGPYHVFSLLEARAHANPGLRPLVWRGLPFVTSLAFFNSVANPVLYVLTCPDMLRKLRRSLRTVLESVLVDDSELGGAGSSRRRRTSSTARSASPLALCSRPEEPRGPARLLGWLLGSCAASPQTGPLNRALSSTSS

For `Cc1ccc(Oc2nc3cc(-c4ccc(-c5ccccc5)cc4)c(Cl)cc3[nH]2)cc1C(=O)O`, the IC50 [1] was 1.8 µM and the IC50 [2] was over 86 µM.
